Source: paper PMC8100298, “Histone deacetylase inhibitor resminostat in combination with sorafenib counteracts platelet-mediated pro-tumoral effects in hepatocellular carcinoma” (Scientific Reports, 2021)
Read-outs that look alike come from different tables or passages of the source.

How the values were obtained:
[1] = system: PLC/PRF/5 HCC cells; assay: Intracellular flow cytometry (AcLys, H3K27Ac); type: cell-based; settings: 1 µM or 3 µM, 24 hours (Fig. S1B)
Experimental: Supplemental Figures and Figure legends
Figure S1. Inhibition of cancer cell growth by the broad-spectrum HDACI resminostat
A. Inhibition of HDAC1 to 11 by resminostat determined by in vitro HDAC activity assays.
IC50 data from three independent experiments are shown as mean ± SD.
B. Intracellular flow cytometry using antibodies targeting acetyl lysine (AcLys) and the H3K27
acetylation mark (H3K27Ac). IgG isotype controls were used for each antibody. PLC/PRF/5
HCC cells were treated with vehicle control ( 0.1 % DMSO), 1 µM or 3 µM resminostat for 24
hours. For AcLys, the geometric mean fluore scence intensities (gMFI) are shown. For
H3K27Ac, the ratios of the gMFIs for H3K27Ac relative to Histone H3 are shown. D ata of
three technical replicates are presented as mean ± SD.
(1 picture or pasted object on this page, not shown here)
(100×, 78440; Thermo Scientific, Massachusetts, US). Following incubation for 1 h at 4°C,
The protein concentration of the
Fisher Scientific, Massachusetts, US ). Equal amounts of protein lysates and a pre-stained
US) and transferred to PVDF membranes. The membranes were probed using the relevant […]
secondary fluorescence labelled antibodies for 45 min in the dark at RT, washed twice in […]
cells were measured using the Miltenyi MACSQuant Analyser 10 (Miltenyi) and analysed with […]
counted in a Neubauer chamber before the required number of platelets was activated by […]

[2] = system: HEK293; assay: Efficacy screening assay; type: cell-based; settings: HEK293, kidney
Experimental: labelled fluorogenic peptide substrates: fluorogenic peptide from p53 residues 379-382 (RHKK(Ac)AMC) for HDAC1, 2, 3, 6, 10, 11; fluorogenic HDAC Class IIa Substrate (Trifluoro acetyl Lysine, Ac-LGK(TFA)-AMC) for HDAC 4, 5, 7, 9; and fluorogenic peptide from p53 residues 379-382 (RHK(Ac)K(Ac)AMC) for HDAC8. 1 mg/mL BSA and DMSO was added to the assay buffer (50 mM Tris-HCl, pH 8.0; 137 mM NaCl; 2.7 mM KCl; 1 mM MgCl2) prior to use. In a two-step reaction, the substrate with the acetylated lysine side chain was incubated for with a sample containing HDAC activity to p roduce the deacetylated products: 1 h at 30°C for HDAC1, 2, 3 and 6; 30 min at RT for HDAC4, 5, 7 and 9; 2 h at 30°C for HDAC8, 10 and 11. In a second step, the deacetylated products were digested by the addition of developer for 1 h at 30°C to produce the fluorescent signal proportional to the amount of deacetylated substrates and the fluorescence was measured using an Envision plate reader at 355 nm (excitation) and 460 nm (emission). A kinetic measurement was performed for ~1 h with 5 min intervals and d ata from the final time point were analysed. IC50 values and curve fits were obtained using GraphPad Softwar e.
The experiment was performed by Oncolead GmbH & Co. KG (Karlsfeld , Germany), based on a standardized screening procedure . Cell lines were purchased directly from the ATCC, NCI and DSMZ cell line c ollections. Cells used for the study had undergone less than 20 passages. To ensure the absence of potential contamination and wrong assignment, all cell lines were tested using a whole genome assay (Agilent, USA). All cell lines were grown as recommended by the suppliers and with addition of 100 U/mL penicillin G and 100 µg/mL; streptomycin. Cell growth and treatments were performed in Nunclon D 96 -well plates (NUNC, Germany). The optimal seeding density for each cell line was determined to ensure exponential growth for the duration of the experiment. All cells growing without anti-cancer agents were sub-conﬂuent by the end of the treatment, as determined by visual inspection.
After an initial 24 h pre-growth period, the compounds were added. The vehicle concentration […]
was 0.1% DMSO. After incubation at 37°C for 72 h, the culture medium was aspirated, and the cells were precipitated by the addition of 10% trichloroacetic acid (Sigma-Aldrich, Missouri, US). After overnight incubation at 4°C, the plates were washed three times with deionized water. The precipitates were then stained with SRB (0.4% wt/v sulforhodamine B solution in 1% acetic acid, Sigma-Aldrich, Missouri, US). Afterwards, the plates were washed six times with 1% acetic acid to remove unbound stain. After drying the plates at room temperature, the bound SRB was solubilized with 10 mM Tris base and the optical density was measured at 520 nm using a Victor2 plate reader (Perkin Elmer, Germany). Blank OD values were subtracted from mean OD values for each concentration. The nonlinear curve ﬁtting and EC50 calculations were per formed using XLﬁt and algorithm “205” (ID Business […]
For cell-based and other in vitro assays, data are presented as data mean ± SD of at least […]
For the orthotopic mouse model, data are presented as mean + SEM. For statistical analysis, one-way ANOVA and multiple comparison (Dunnett) was performed for compound treatments compared to vehicle control. The adjusted p-values with 95% confidence interval were reported as significant. For comparison of EC50 values in Figure 1F, one-way ANOVA with multiple comparison testing (Tukey) was performed. Multiplicity adjusted p -values for the EC50 with sorafenib versus resminostat for each cell line and comparison between cell lines for sorafenib are presented (95% confidence interval for significance testing). For comparison of EC50 data in Figure 2B, one-way ANOVA with multiple comparison testing (Tukey) was performed. Multiplicity adjusted p-values with 95% confidence interval was applied. For the […]

CN(C)Cc1ccc(S(=O)(=O)n2ccc(/C=C/C(=O)NO)c2)cc1 [resminostat, Resminostat]
acetylation of histone mark H3K27 [1]: hyperacetylation | global acetylation level (AcLys) [1]: increase of the global acetylation level in HCC cells in a dose-dependent manner | EC50 ([2]; 72 h, read-out: EC50): 4.76 µM | EC50 ([2]; Homo sapiens, HEK293, 72 h, log of EC50, negative, read-out: log(EC50) (converted)): 4.79 µM | EC50 ([2]; Homo sapiens, HEK293, 72 h, read-out: EC50): 4.76 µM
